Test results as given in ChEMBL document CHEMBL1201862, “PubChem BioAssay data set” (2004).
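Results reflect a 48-hour exposure of cells in 96-well plates to compound at five concentrations. GI50 marks 50% less growth.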 Activity calls are given as the source filed them. No stated cut-off is given here; in the data, active = GI50 up to about 1.1 µM and inactive = higher.

Experiments:
Test in all cases: DTP human tumour cell line panel, 48 h
[1] = tested on: 786-0
[2] = tested on: A498
[3] = tested on: A549
[4] = tested on: ACHN
[5] = tested on: CAKI-1
[6] = tested on: CCRF-CEM
[7] = tested on: COLO 205
[8] = tested on: DLD-1
[9] = tested on: DMS-114
[10] = tested on: DMS-273
[11] = tested on: EKVX
[12] = tested on: HCC 2998
[13] = tested on: HCT-116
[14] = tested on: HCT-15
[15] = tested on: HL-60
[16] = tested on: HOP-18
[17] = tested on: HOP-62
[18] = tested on: HOP-92
[19] = tested on: HT-29
[20] = tested on: IGROV-1
[21] = tested on: K562
[22] = tested on: KM-20L2
[23] = tested on: KM12
[24] = tested on: LOX IMVI
[25] = tested on: LXFL 529
[26] = tested on: M14
[27] = tested on: M19-MEL
[28] = tested on: MOLT-4
[29] = tested on: Malme-3M
[30] = tested on: NCI-H226
[31] = tested on: NCI-H23
[32] = tested on: NCI-H460
[33] = tested on: NCI-H522
[34] = tested on: OVCAR-3
[35] = tested on: OVCAR-4
[36] = tested on: OVCAR-5
[37] = tested on: OVCAR-8
[38] = tested on: RPMI-8226
[39] = tested on: RXF 393
[40] = tested on: SF-268
[41] = tested on: SF-295
[42] = tested on: SF-539
[43] = tested on: SK-MEL-28
[44] = tested on: SK-MEL-2
[45] = tested on: SK-MEL-5
[46] = tested on: SK-OV-3
[47] = tested on: SN12C
[48] = tested on: SNB-19
[49] = tested on: SNB-75
[50] = tested on: SNB-78
[51] = tested on: SR
[52] = tested on: SW-620
[53] = tested on: TK-10
[54] = tested on: U-251
[55] = tested on: UACC-257
[56] = tested on: UACC-62
[57] = tested on: UO-31
[58] = tested on: XF498

CCOC(=O)c1c(NNc2ccccc2)nc2ccccc2c1-c1ccccc1
GI50 [1]: 31.7 µM (inactive) | GI50 [2]: > 100 µM (inactive) | GI50 [3]: 34.5 µM (inactive) | GI50 [4]: 39.5 µM (inactive) | GI50 [5]: 37.1 µM (inactive) | GI50 [6]: 10.9 µM (inactive) | GI50 [7]: 30 µM (inactive) | GI50 [8]: 25.9 µM (inactive) | GI50 [9]: 17.1 µM (inactive) | GI50 [10]: 43.2 µM (inactive) | GI50 [11]: 50.2 µM (inactive) | GI50 [12]: 55 µM (inactive) | GI50 [13]: 21.8 µM (inactive) | GI50 [14]: 33 µM | GI50 [15]: 15.8 µM (inactive) | GI50 [16]: 28.6 µM (inactive) | GI50 [17]: 23.8 µM (inactive) | GI50 [18]: 27.9 µM (inactive) | GI50 [19]: 32.3 µM (inactive) | GI50 [20]: 42.4 µM (inactive) | GI50 [21]: 22.5 µM (inactive) | GI50 [22]: 35.5 µM (inactive) | GI50 [23]: 31.4 µM (inactive) | GI50 [24]: 20.2 µM (inactive) | GI50 [25]: 19 µM (inactive) | GI50 [26]: 27.3 µM (inactive) | GI50 [27]: 24.3 µM (inactive) | GI50 [28]: 12.8 µM (inactive) | GI50 [29]: 29.1 µM (inactive) | GI50 [30]: 28.2 µM (inactive) | GI50 [31]: 19.5 µM (inactive) | GI50 [32]: 28.4 µM (inactive) | GI50 [33]: 30.1 µM (inactive) | GI50 [34]: 21.1 µM (inactive) | GI50 [35]: 37.5 µM (inactive) | GI50 [36]: 56.1 µM (inactive) | GI50 [37]: 20.4 µM (inactive) | GI50 [38]: 11.9 µM (inactive) | GI50 [39]: 42 µM (inactive) | GI50 [40]: 31.1 µM (inactive) | GI50 [41]: 42.6 µM (inactive) | GI50 [42]: 25.6 µM (inactive) | GI50 [43]: 34 µM (inactive) | GI50 [44]: 17.2 µM (inactive) | GI50 [45]: 20.4 µM (inactive) | GI50 [46]: 65.5 µM (inactive) | GI50 [47]: 30.6 µM (inactive) | GI50 [48]: 41.8 µM (inactive) | GI50 [49]: 36.8 µM (inactive) | GI50 [50]: 27 µM (inactive) | GI50 [51]: 21.4 µM (inactive) | GI50 [52]: 50.4 µM (inactive) | GI50 [53]: 80.4 µM (inactive) | GI50 [54]: 34.4 µM (inactive) | GI50 [55]: 29.7 µM (inactive) | GI50 [56]: 16.6 µM (inactive) | GI50 [57]: 25.8 µM (inactive)

Nc1nc(O)c2c(ncn2CCO)n1
GI50 [1]: > 100 µM (inactive) | GI50 [3]: > 100 µM (inactive) | GI50 [4]: > 100 µM (inactive) | GI50 [6]: > 100 µM (inactive) | GI50 [7]: > 100 µM (inactive) | GI50 [8]: > 100 µM (inactive) | GI50 [10]: > 100 µM (inactive) | GI50 [11]: > 100 µM (inactive) | GI50 [12]: > 100 µM (inactive) | GI50 [13]: > 100 µM (inactive) | GI50 [14]: > 100 µM | GI50 [15]: > 100 µM (inactive) | GI50 [16]: > 100 µM (inactive) | GI50 [17]: > 100 µM (inactive) | GI50 [18]: > 100 µM (inactive) | GI50 [19]: > 100 µM (inactive) | GI50 [22]: > 100 µM (inactive) | GI50 [24]: > 100 µM (inactive) | GI50 [25]: > 100 µM (inactive) | GI50 [27]: > 100 µM (inactive) | GI50 [28]: > 100 µM (inactive) | GI50 [29]: > 100 µM (inactive) | GI50 [30]: > 100 µM (inactive) | GI50 [31]: > 100 µM (inactive) | GI50 [32]: > 100 µM (inactive) | GI50 [34]: > 100 µM (inactive) | GI50 [36]: > 100 µM (inactive) | GI50 [37]: > 100 µM (inactive) | GI50 [38]: > 100 µM (inactive) | GI50 [39]: > 100 µM (inactive) | GI50 [40]: > 100 µM (inactive) | GI50 [41]: > 100 µM (inactive) | GI50 [42]: > 100 µM (inactive) | GI50 [43]: > 100 µM (inactive) | GI50 [44]: > 100 µM (inactive) | GI50 [46]: > 100 µM (inactive) | GI50 [47]: > 100 µM (inactive) | GI50 [48]: > 100 µM (inactive) | GI50 [49]: > 100 µM (inactive) | GI50 [50]: > 100 µM (inactive) | GI50 [51]: > 100 µM (inactive) | GI50 [52]: > 100 µM (inactive) | GI50 [53]: > 100 µM (inactive) | GI50 [54]: > 100 µM (inactive) | GI50 [55]: > 100 µM (inactive) | GI50 [56]: > 100 µM (inactive) | GI50 [57]: > 100 µM (inactive) | GI50 [58]: > 100 µM (inactive)

CCO/C([O-])=C(\C(=O)c1ccccc1)[n+]1c(C)sc2ccccc21
GI50 [1]: > 100 µM (inactive) | GI50 [2]: > 100 µM (inactive) | GI50 [3]: 45.5 µM (inactive) | GI50 [5]: > 100 µM (inactive) | GI50 [6]: > 100 µM (inactive) | GI50 [7]: 83.6 µM (inactive) | GI50 [8]: > 100 µM (inactive) | GI50 [9]: 32.3 µM (inactive) | GI50 [10]: > 100 µM (inactive) | GI50 [11]: > 100 µM (inactive) | GI50 [12]: > 100 µM (inactive) | GI50 [13]: > 100 µM (inactive) | GI50 [14]: 21.9 µM | GI50 [15]: 53.2 µM (inactive) | GI50 [16]: 20 µM (inactive) | GI50 [17]: > 100 µM (inactive) | GI50 [19]: > 100 µM (inactive) | GI50 [20]: > 100 µM (inactive) | GI50 [21]: 81.3 µM (inactive) | GI50 [22]: > 100 µM (inactive) | GI50 [23]: > 100 µM (inactive) | GI50 [24]: 49.2 µM (inactive) | GI50 [25]: 54.1 µM (inactive) | GI50 [26]: > 100 µM (inactive) | GI50 [27]: 18.4 µM (inactive) | GI50 [28]: > 100 µM (inactive) | GI50 [29]: 96.6 µM (inactive) | GI50 [30]: > 100 µM (inactive) | GI50 [31]: 61.8 µM (inactive) | GI50 [32]: 59.3 µM (inactive) | GI50 [33]: 81.3 µM (inactive) | GI50 [34]: > 100 µM (inactive) | GI50 [35]: 96.6 µM (inactive) | GI50 [36]: > 100 µM (inactive) | GI50 [37]: > 100 µM (inactive) | GI50 [38]: 59 µM (inactive) | GI50 [39]: > 100 µM (inactive) | GI50 [40]: > 100 µM (inactive) | GI50 [41]: 64.4 µM (inactive) | GI50 [42]: 93.3 µM (inactive) | GI50 [43]: > 100 µM (inactive) | GI50 [44]: 58.3 µM (inactive) | GI50 [45]: 16.7 µM (inactive) | GI50 [46]: > 100 µM (inactive) | GI50 [48]: > 100 µM (inactive) | GI50 [49]: > 100 µM (inactive) | GI50 [50]: > 100 µM (inactive) | GI50 [52]: > 100 µM (inactive) | GI50 [53]: > 100 µM (inactive) | GI50 [54]: > 100 µM (inactive) | GI50 [55]: 13.5 µM (inactive) | GI50 [56]: 52.8 µM (inactive) | GI50 [57]: 50.6 µM (inactive)
